Key:
CAOV-3 cells = assay: In vitro proliferation inhibition (CellTiter-Glo), CAOV-3; assay type: cell-based; details: Homo sapiens; CAOV-3, ovarian cancer, HRD-positive (low expression of ATM protein); 6-10 days culture
Description: […]
Experimental data processing method: The luminescence signal value was used to calculate the inhibition rate. […]

[1] = system: human breast cancer cell line MX-1 xenograft tumor; assay: Subcutaneous xenograft tumor model of human breast cancer cell line MX-1; assay type: in vivo, BALB/c nude mice
Description: • 1. Experimental objective: To evaluate the in vivo efficacy of the compound in a subcutaneous xenograft tumor model of human breast cancer cell line MX-1 in nude mice. • 2. Reagent • RPMI-1640 medium (22400-089, Gibco), fetal bovine serum (FBS) (10099-141C, Gibco) • Phosphate buffer (PBS, 10010-023, Gibco), HPMC (D180HB4005, Shanghai Colorcon Coating Technology Ltd.) • 0.25% Trypsin-EDTA (25200-056, Gibco), Pen Strep (P/S) (15140-122, Gibco) • 3. Experimental operations and data processing • 3.1 Animals: BALB/c nude mice, 8-12 weeks old, female, purchased from the Laboratory Animal Business Department of Shanghai Institute of Planned Parenthood Research. • 3.2 Cell culture and cell suspension preparation • a. A vial of MX-1 cells was taken from a cell bank, the cells were thawed with RPMI-1640 medium (RPMI-1640+10% FBS), and the thawed cells were placed in a cell culture flask (with the cell type, date, the name of the culture operator, etc., being marked on the wall of the flask), which were placed in a CO2 incubator for culturing (wherein the temperature of the incubator was 37° C., and the CO2 concentration was 5%). • b. The cells were passaged every three days, and after passage, the cells were placed in the CO2 incubator to continue the culture. This process was repeated until the cell number met the requirements for in vivo efficacy. • c. The cultured cells were collected, counted using a full-automatic cell counter, and resuspended with PBS on the basis of the counting results to prepare a cell suspension (at a density of 3×10^7/mL), which was then placed in an ice box for later use. • 3.3 Cell inoculation • a. Before inoculation, the nude mice were marked with disposable universal ear tags for mice and rats. • b. At the time of inoculation, the cell suspension was mixed uniformly, 0.1-1 mL of the cell suspension was aspirated using a 1 mL syringe with air bubbles expelled, and the syringe was then placed on an ice bag for later use. • c. The nude mouse was secured with the left hand, the right dorsal area near the right shoulder (inoculation site) of the nude mouse was disinfected with a 75% alcohol cotton ball, and inoculation was initiated after 30 seconds. • d. The experimental nude mice were inoculated sequentially (0.1 mL of cell suspension per mouse). • 3.4 Tumor measurement, grouping and administration in tumor-bearing mice • a. Tumor was measured on days 10-18 after inoculation depending on the tumor growth, and the tumor size was calculated.
tumor volume (mm^3)=length (mm)×width (mm)×width (mm)/2 Tumor volume calculation: • b. According to the body weight of tumor-bearing mice and the size of the tumor, the mice were grouped by random grouping. • c. According to the grouping results, the test drug was started to be administered (administration method: oral administration; administration volume: 10 mL/kg; administration frequency: once/day; administration cycle: 21 days; vehicle: 0.5% HPMC). • d. Tumor measurement and weighing were performed twice a week after starting administration of test drugs. • e. The animals were euthanized at the end of the experiment. • f. Data processing was performed using software such as GraphPad Prism. The tumor inhibitory efficacy of the compound was evaluated by TGI (%) and ΔT/ΔC (%). ΔT/ΔC (%)=(T−T0)/(C−C0)×100, where T and C are the tumor volumes of the treatment group and the vehicle control group at the end of the experiment, respectively, and T0 and C0 are the tumor volumes of the treatment group and the vehicle control group at the beginning of the experiment, respectively. Tumor growth inhibition (TGI) (%)=100−ΔT/ΔC (%). Tumor growth inhibition (TGI) (%)=100−(T−T0)/T0×100 when tumor regression occurs • 4. Experimental conclusion

[2] = MX-1, 3 mg/kg oral once/day, Day 21
[3] = MX-1, 100 mg/kg oral once/day, Day 21

Row | SMILES | IC50 (CAOV-3 cells) [µM] | Tumor volume (Mean ± SEM) ([1]; MX-1, 3 mg/kg oral once/day, Day 0) [mm^3] | T/C [1, 2] [%] | TGI [1, 2] [%] | Tumor volume (Mean ± SEM) [1, 2] [mm^3] | Tumor volume (Mean ± SEM) ([1]; MX-1, 100 mg/kg oral once/day, Day 0) [mm^3] | T/C [1, 3] [%] | TGI [1, 3] [%] | Tumor volume (Mean ± SEM) [1, 3] [mm^3]
1 | CCc1cc2ncc(CN3CCN(c4ccc(C(=O)NC)nc4)CC3)cc2[nH]c1=O [AZD5305] | 0.004 ± 0.0008 | 122 ± 17 | 34.13 | 70.43 | 642 ± 132 | – | – | – | –
2 | O=C(c1cc(Cc2n[nH]c(=O)c3ccccc23)ccc1F)N1CCN(C(=O)C2CC2)CC1 [Olaparib] | 0.151 ± 0.018 | – | – | – | – | 122 ± 14 | 88.08 | 12.73 | 1656 ± 289
